{"source": "paper PMC7523345", "about": "(Investigational new drugs, 2018)", "experiment": "Phase I dose escalation study: safety, tolerability, DLT and MTD", "assay_type": "in vivo", "note": "Entries after “also recorded” stand apart in the source; their conditions may differ."}
{"smiles": "Cc1cccc2c1NC(=O)[C@@H](NC(=O)[C@H](CCC(F)(F)F)[C@H](CCC(F)(F)F)C(N)=O)N=C2c1cccc(F)c1", "note": "[BMS-986115]", "values": [{"measurement": "Rash maculopapular (drug related AE, all grades)", "setting": "Arm A QD 0.6 mg (N = 2)", "result": "0 n (%)"}, {"measurement": "Sinusitis (drug related AE, all grades)", "setting": "Arm A QD 0.6 mg (N = 2)", "result": "0 n (%)"}, {"measurement": "Urticaria (drug related AE, Grade 3 and 4)", "setting": "Arm A QD 0.6 mg (N = 2)", "result": "0 n (%)"}, {"measurement": "Vision blurred (drug related AE, all grades)", "setting": "Arm A QD 0.6 mg (N = 2)", "result": "0 n (%)"}, {"measurement": "Vomiting (drug related AE, Grade 3 and 4)", "setting": "Arm A QD 0.6 mg (N = 2)", "result": "0 n (%)"}, {"measurement": "Vomiting (drug related AE, all grades)", "setting": "Arm A QD 0.6 mg (N = 2)", "result": "1 (50) n (%)"}, {"measurement": "Weight decreased (drug related AE, all grades)", "setting": "Arm A QD 0.6 mg (N = 2)", "result": "0 n (%)"}, {"measurement": "No. of patients with DLTs", "setting": "Arm A QD 0.6 mg, 2 DLT evaluable patients", "result": 0}, {"measurement": "Abdominal distension (drug related AE, all grades)", "setting": "Arm A QD 1.2 mg (N = 6)", "result": "0 n (%)"}, {"measurement": "Abdominal pain (drug related AE, Grade 3 and 4)", "setting": "Arm A QD 1.2 mg (N = 6)", "result": "0 n (%)"}, {"measurement": "Abdominal pain (drug related AE, all grades)", "setting": "Arm A QD 1.2 mg (N = 6)", "result": "0 n (%)"}, {"measurement": "Blood creatinine increased (drug related AE, all grades)", "setting": "Arm A QD 1.2 mg (N = 6)", "result": "0 n (%)"}, {"measurement": "Colitis (drug related AE, Grade 3 and 4)", "setting": "Arm A QD 1.2 mg (N = 6)", "result": "1 (17) n (%)"}, {"measurement": "Cough (drug related AE, Grade 3 and 4)", "setting": "Arm A QD 1.2 mg (N = 6)", "result": "0 n (%)"}, {"measurement": "Cough (drug related AE, all grades)", "setting": "Arm A QD 1.2 mg (N = 6)", "result": "0 n (%)"}, {"measurement": "Decreased Appetite (drug related AE, Grade 3 and 4)", "setting": "Arm A QD 1.2 mg (N = 6)", "result": "0 n (%)"}, {"measurement": "Decreased Appetite (drug related AE, all grades)", "setting": "Arm A QD 1.2 mg (N = 6)", "result": "2 (33) n (%)"}, {"measurement": "Dehydration (drug related AE, Grade 3 and 4)", "setting": "Arm A QD 1.2 mg (N = 6)", "result": "0 n (%)"}, {"measurement": "Dehydration (drug related AE, all grades)", "setting": "Arm A QD 1.2 mg (N = 6)", "result": "2 (33) n (%)"}, {"measurement": "Dermatitis acneiform (drug related AE, all grades)", "setting": "Arm A QD 1.2 mg (N = 6)", "result": "0 n (%)"}, {"measurement": "Diarrhoea (drug related AE, Grade 3 and 4)", "setting": "Arm A QD 1.2 mg (N = 6)", "result": "1 (17) n (%)"}, {"measurement": "Diarrhoea (drug related AE, all grades)", "setting": "Arm A QD 1.2 mg (N = 6)", "result": "6 (100) n (%)"}, {"measurement": "Dry mouth (drug related AE, all grades)", "setting": "Arm A QD 1.2 mg (N = 6)", "result": "1 (17) n (%)"}, {"measurement": "Dry skin (drug related AE, all grades)", "setting": "Arm A QD 1.2 mg (N = 6)", "result": "1 (17) n (%)"}, {"measurement": "Dysgeusia (drug related AE, all grades)", "setting": "Arm A QD 1.2 mg (N = 6)", "result": "2 (33) n (%)"}, {"measurement": "Dyspepsia (drug related AE, all grades)", "setting": "Arm A QD 1.2 mg (N = 6)", "result": "1 (17) n (%)"}, {"measurement": "Dysphonia (drug related AE, all grades)", "setting": "Arm A QD 1.2 mg (N = 6)", "result": "0 n (%)"}, {"measurement": "Fatigue (drug related AE, Grade 3 and 4)", "setting": "Arm A QD 1.2 mg (N = 6)", "result": "0 n (%)"}, {"measurement": "Fatigue (drug related AE, all grades)", "setting": "Arm A QD 1.2 mg (N = 6)", "result": "2 (33) n (%)"}, {"measurement": "Flatulence (drug related AE, all grades)", "setting": "Arm A QD 1.2 mg (N = 6)", "result": "0 n (%)"}, {"measurement": "Hypocalcaemia (drug related AE, Grade 3 and 4)", "setting": "Arm A QD 1.2 mg (N = 6)", "result": "0 n (%)"}, {"measurement": "Hypocalcaemia (drug related AE, all grades)", "setting": "Arm A QD 1.2 mg (N = 6)", "result": "0 n (%)"}, {"measurement": "Hypokalaemia (drug related AE, Grade 3 and 4)", "setting": "Arm A QD 1.2 mg (N = 6)", "result": "1 (17) n (%)"}, {"measurement": "Hypokalaemia (drug related AE, all grades)", "setting": "Arm A QD 1.2 mg (N = 6)", "result": "3 (50) n (%)"}, {"measurement": "Hyponatraemia (drug related AE, Grade 3 and 4)", "setting": "Arm A QD 1.2 mg (N = 6)", "result": "0 n (%)"}, {"measurement": "Hyponatraemia (drug related AE, all grades)", "setting": "Arm A QD 1.2 mg (N = 6)", "result": "0 n (%)"}, {"measurement": "Hypophosphataemia (drug related AE, Grade 3 and 4)", "setting": "Arm A QD 1.2 mg (N = 6)", "result": "2 (33) n (%)"}, {"measurement": "Hypophosphataemia (drug related AE, all grades)", "setting": "Arm A QD 1.2 mg (N = 6)", "result": "6 (100) n (%)"}, {"measurement": "Ileus (drug related AE, Grade 3 and 4)", "setting": "Arm A QD 1.2 mg (N = 6)", "result": "0 n (%)"}, {"measurement": "Increased upper airway secretion (drug related AE, all grades)", "setting": "Arm A QD 1.2 mg (N = 6)", "result": "0 n (%)"}, {"measurement": "Laryngeal pain (drug related AE, all grades)", "setting": "Arm A QD 1.2 mg (N = 6)", "result": "0 n (%)"}, {"measurement": "Leucocytosis (drug related AE, Grade 3 and 4)", "setting": "Arm A QD 1.2 mg (N = 6)", "result": "0 n (%)"}, {"measurement": "Mouth ulceration (drug related AE, all grades)", "setting": "Arm A QD 1.2 mg (N = 6)", "result": "1 (17) n (%)"}, {"measurement": "Nausea (drug related AE, Grade 3 and 4)", "setting": "Arm A QD 1.2 mg (N = 6)", "result": "0 n (%)"}, {"measurement": "Nausea (drug related AE, all grades)", "setting": "Arm A QD 1.2 mg (N = 6)", "result": "4 (67) n (%)"}, {"measurement": "Pruritus (drug related AE, Grade 3 and 4)", "setting": "Arm A QD 1.2 mg (N = 6)", "result": "0 n (%)"}, {"measurement": "Pruritus (drug related AE, all grades)", "setting": "Arm A QD 1.2 mg (N = 6)", "result": "0 n (%)"}, {"measurement": "Pulmonary embolism (drug related AE, Grade 3 and 4)", "setting": "Arm A QD 1.2 mg (N = 6)", "result": "0 n (%)"}, {"measurement": "Rash (drug related AE, all grades)", "setting": "Arm A QD 1.2 mg (N = 6)", "result": "3 (50) n (%)"}, {"measurement": "Rash maculopapular (drug related AE, all grades)", "setting": "Arm A QD 1.2 mg (N = 6)", "result": "0 n (%)"}, {"measurement": "Sinusitis (drug related AE, all grades)", "setting": "Arm A QD 1.2 mg (N = 6)", "result": "1 (17) n (%)"}, {"measurement": "Urticaria (drug related AE, Grade 3 and 4)", "setting": "Arm A QD 1.2 mg (N = 6)", "result": "0 n (%)"}, {"measurement": "Vision blurred (drug related AE, all grades)", "setting": "Arm A QD 1.2 mg (N = 6)", "result": "0 n (%)"}, {"measurement": "Vomiting (drug related AE, Grade 3 and 4)", "setting": "Arm A QD 1.2 mg (N = 6)", "result": "0 n (%)"}, {"measurement": "Vomiting (drug related AE, all grades)", "setting": "Arm A QD 1.2 mg (N = 6)", "result": "2 (33) n (%)"}, {"measurement": "Weight decreased (drug related AE, all grades)", "setting": "Arm A QD 1.2 mg (N = 6)", "result": "1 (17) n (%)"}, {"measurement": "Description of DLT", "setting": "Arm A QD 1.5 mg", "result": "Gr 3 nausea; also recorded: G3 nausea"}, {"measurement": "Description of study drug toxicity that led to treatment discontinuation", "setting": "Arm A QD 1.5 mg", "result": "G3 Nausea concurrent with G2 diarrhoea (N = 1); also recorded: G2 Dermatitis acneiform (N = 1)"}, {"measurement": "Abdominal distension (drug related AE, all grades)", "setting": "Arm A QD 1.5 mg (N = 7)", "result": "1 (14) n (%)"}, {"measurement": "Abdominal pain (drug related AE, Grade 3 and 4)", "setting": "Arm A QD 1.5 mg (N = 7)", "result": "1 (14) n (%)"}, {"measurement": "Abdominal pain (drug related AE, all grades)", "setting": "Arm A QD 1.5 mg (N = 7)", "result": "1 (14) n (%)"}, {"measurement": "Blood creatinine increased (drug related AE, all grades)", "setting": "Arm A QD 1.5 mg (N = 7)", "result": "0 n (%)"}, {"measurement": "Colitis (drug related AE, Grade 3 and 4)", "setting": "Arm A QD 1.5 mg (N = 7)", "result": "0 n (%)"}, {"measurement": "Cough (drug related AE, Grade 3 and 4)", "setting": "Arm A QD 1.5 mg (N = 7)", "result": "0 n (%)"}, {"measurement": "Cough (drug related AE, all grades)", "setting": "Arm A QD 1.5 mg (N = 7)", "result": "2 (29) n (%)"}, {"measurement": "Decreased Appetite (drug related AE, Grade 3 and 4)", "setting": "Arm A QD 1.5 mg (N = 7)", "result": "0 n (%)"}, {"measurement": "Decreased Appetite (drug related AE, all grades)", "setting": "Arm A QD 1.5 mg (N = 7)", "result": "1 (14) n (%)"}, {"measurement": "Dehydration (drug related AE, Grade 3 and 4)", "setting": "Arm A QD 1.5 mg (N = 7)", "result": "0 n (%)"}, {"measurement": "Dehydration (drug related AE, all grades)", "setting": "Arm A QD 1.5 mg (N = 7)", "result": "0 n (%)"}, {"measurement": "Dermatitis acneiform (drug related AE, all grades)", "setting": "Arm A QD 1.5 mg (N = 7)", "result": "4 (57) n (%)"}]}
